Laboratory results from the supplement of paper PMC5844555.

Assays:
Test in all cases: 3' UTR reporter interaction score (median-centred robust z-score of log2 firefly/Renilla activity); higher = less repression of the 3' UTR reporter
Conditions in all cases: HEK293T; 48 h
BRCA2 = test system: BRCA2
In short: (§1)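 Using DharmaFECT Duo, HEK293T cells (10,000/well, 96-well plates) were co-transfected with 2.5 pmol miRNA mimic, 100 ng firefly luc2P reporter containing the gene's 3' UTR and 20 ng Renilla pRL-TK control, and dual-luciferase activity was read 48 h later. The interaction score is the log firefly/Renilla ratio as a per-plate robust z-score (median, median absolute deviation), median-centred per miRNA, averaged over at least two independent screens; lower, more negative values indicate interaction.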

EZH2 = test system: EZH2
In short: as §1

FBXW7 = test system: FBXW7
In short: as §1

HRAS = test system: HRAS
In short: as §1

MYB = test system: MYB
In short: as §1

MYCN = test system: MYCN
In short: as §1

MYC = test system: MYC
In short: as §1

MYT1L = test system: MYT1L
In short: as §1

NOTCH1 = test system: NOTCH1
In short: as §1

PHF6 = test system: PHF6
In short: as §1

PHOX2B = test system: PHOX2B
In short: as §1

RB1 = test system: RB1
In short: as §1

TP53 = test system: TP53
In short: as §1

ZEB2 = test system: ZEB2
In short: as §1

Sequence | 3' UTR reporter interaction score (BRCA2) | 3' UTR reporter interaction score (EZH2) | 3' UTR reporter interaction score (FBXW7) | 3' UTR reporter interaction score (HRAS) | 3' UTR reporter interaction score (MYB) | 3' UTR reporter interaction score (MYCN) | 3' UTR reporter interaction score (MYC) | 3' UTR reporter interaction score (MYT1L) | 3' UTR reporter interaction score (NOTCH1) | 3' UTR reporter interaction score (PHF6) | 3' UTR reporter interaction score (PHOX2B) | 3' UTR reporter interaction score (RB1) | 3' UTR reporter interaction score (TP53) | 3' UTR reporter interaction score (ZEB2)
GGAGAAAUUAUCCUUGGUGUGU | -0.364 | -0.15 | 0.978 | -0.545 | -0.159 | -0.523 | -1.2 | 0.261 | 0.146 | 0.937 | 1.16 | 0.166 | 0.00656 | -0.311
GGCGGAGGGAAGUAGGUCCGUUGGU | 0.242 | 0.332 | -0.817 | -0.537 | 0.0558 | -0.331 | -0.0304 | 0.0209 | 0.067 | 0.0679 | -1.42 | 0.267 | -0.152 | 0.059
GGCUGGCUCGCGAUGUCUGUUU | -2.13 | -0.172 | 0.4 | -0.0445 | -2.48 | 0.967 | -0.237 | 1.15 | -0.649 | 0.0685 | 0.166 | 0.183 | 0.4 | 0.922
GGGCGCCUGUGAUCCCAAC | -0.242 | 0.0894 | 0.114 | -0.201 | 0.137 | -0.708 | -0.484 | 0.181 | -0.381 | -0.831 | 0.588 | -0.433 | 0.186 | -0.0882
GGUAGAUUCUCCUUCUAUGAG | -0.394 | -0.351 | 1.14 | -0.338 | 0.783 | 0.767 | 0.11 | 1.11 | -0.435 | 0.87 | 0.393 | -0.935 | -0.00155 | 0.717
GUCAACACUUGCUGGUUUCCUC | 1.05 | 1.25 | 1.04 | -1.53 | -0.366 | -0.83 | 1.11 | -2.13 | -0.696 | 0.545 | -0.934 | 0.731 | -0.391 | -0.604
GUCAUACACGGCUCUCCUCUCU | 0.502 | -0.733 | -0.585 | 0.779 | 0.607 | -1.89 | 0.275 | -0.904 | 0.867 | -2.04 | -0.585 | -0.0565 | -0.0395 | 0.639
GUCCAGUUUUCCCAGGAAUCCCUU | 0.301 | 0.32 | -0.33 | -1.3 | 0.98 | -0.357 | -0.0253 | 0.164 | 0.816 | 0.802 | -0.361 | -0.0539 | -0.611 | -0.186
GUCCCUCUCCAAAUGUGUCUUG | 0.364 | 0.871 | -1.89 | 0.01 | 1.83 | 1.77 | 1.7 | -0.216 | -0.392 | -1.08 | -0.224 | -0.267 | 0.415 | -3.03
GUCCGCUCGGCGGUGGCCCA | -0.044 | 0.465 | -0.455 | 0.202 | 0.218 | -0.651 | -0.572 | 0.878 | 0.197 | 0.23 | 0.167 | -0.471 | 0.883 | 0.167
GUGAGUCUCUAAGAAAAGAGGA | 0.654 | -0.0137 | 1.15 | -1.03 | -1.86 | -0.777 | -0.241 | 0.22 | 0.287 | 0.947 | -1.54 | -0.543 | 1.06 | 0.201
GUGCAUUGCUGUUGCAUUGCA | -0.52 | 0.0384 | -0.35 | -0.237 | -2.09 | 0.79 | -1.33 | 0.516 | 0.367 | -0.271 | 0.67 | -0.687 | 0.631 | -2.34
GUGCAUUGUAGUUGCAUUG | -0.383 | -0.326 | 0.387 | -0.432 | 0.56 | -0.218 | -0.88 | -0.399 | 0.471 | -0.0198 | 1.4 | -0.339 | 0.444 | -0.884
GUGCCGCCAUCUUUUGAGUGU | -0.313 | 1.03 | -3.5 | -0.278 | 0.102 | 0.415 | 1.02 | -0.378 | -0.278 | 1.8 | -0.654 | 0.47 | 0.183 | -1.72
GUGCCUACUGAGCUGAUAUCAGU | 0.244 | 0.242 | 0.26 | -0.972 | 0.61 | 0.559 | 0.239 | -1.1 | -1.95 | -1.31 | 1.18 | 0.454 | 0.396 | -0.6
GUGGCUGCACUCACUUCCUUC | -1.87 | 0.166 | 0.899 | -0.434 | 0.056 | 1.8 | 0.00108 | 1.48 | 0.486 | 1.53 | -0.165 | 1.44 | -1.37 | -0.491
GUGUCUGCUUCCUGUGGGA | 0.42 | -0.0979 | 0.999 | -2.48 | -0.0781 | -0.382 | -0.0744 | 0.553 | -0.363 | 0.326 | -0.344 | -0.362 | 0.286 | 0.24
GUGUCUUUUGCUCUGCAGUCA | -0.493 | 1.94 | -1.58 | 2.01 | -0.175 | 0.0597 | 1.06 | 0.207 | -1.08 | -0.433 | -2.8 | 0.189 | 0.375 | -1.45
GUGUGUGGAAAUGCUUCUGC | -2.78 | 1.67 | -0.236 | 0.713 | 1.87 | 1.7 | -0.259 | -1.13 | -0.133 | 1.54 | -1.13 | 1.07 | -0.707 | -1.28
